Literature values in patent publication US7074826B2, “R-NSAID esters and their use” (Encore Pharmaceuticals, Inc., priority 2002, dated 2006).

Columns and labels:
[1] = test system: colon cancer patients
[2] = test system: cystic fibrosis patients
[3] = test system: Alzheimer's dementia; settings: limited clinical trial

O=c1[nH]cc(F)c(=O)[nH]1 [5-fluorouracil]
survival among colon cancer patients ([1]; administered alone): No improvement in survival

c1ccc([C@H]2CN3CCSC3=N2)cc1 [levamisole]
survival rate among colon cancer patients ([1]; added to 5-fluorouracil): improved survival rate

CC(C)Cc1ccc(C(C)C(=O)O)cc1 (racemic) [racemic ibuprofen, ibuprofen]
adverse effects of high doses ([2]; high doses employed in the Konstan study): conjunctivitis and epistaxis | progression of the lung disease ([2]; high doses, cystic fibrosis patients, four-year period): slows progression of the lung disease

COc1ccc2c(c1)c(CC(=O)O)c(C)n2C(=O)c1ccc(Cl)cc1 [indomethacin]
progression of Alzheimer's dementia [3]: retardation in the progression of Alzheimer's dementia
